Reference: US11958812B2, “3, 5-disubstituted pyridine and 3, 5-disubstituted pyridazine derivatives and pharmaceutical use of same” (MITSUBISHI TANABE PHARMA CORPORATION, priority 2018, dated 2024)

Key:
ATX activity in plasma = target: T1, ATX activity in plasma (Rattus norvegicus, UniProt Q64610); assay: Measurement of ATX activity in plasma (ex vivo), rat single administration test; parameters: species or system male Wistar rat
T1 construct: from tissue; host or cells: plasma of male Wistar rats after oral dosing
Procedure: [Measurement of ATX Activity in Plasma (Ex Vivo)]
A compound administration solution prepared by wet pulverization in a mixer mill (type: MM400) for 10 min and adjusting to a given concentration with 0.5% aqueous carboxymethylcellulose solution was orally administered to male Wistar rat (5-week-old when used) at 5 mL/kg. Blood samples were collected from the cervical vein over time at 8 to 24 hr after administration. The blood was heparin-treated using a micro blood collection tube Capiject (CJ-AL, TERUMO CORPORATION), and the plasma was separated by centrifugation (4° C., 12,000 rpm, for 2 min), and preserved at −80° C. The rats after blood sampling were euthanized by exsanguination from the caudal vena cava under isoflurane inhalation anesthesia. The measurement of ATX activity in plasma was evaluated using the concentration of choline in the plasma, which was liberated from lysophosphatidylcholine (substrate of ATX) by the lysophospholipase D activity of ATX, as an index. An equal amount of 2× assay buffer (200 mM Tris-HCl pH9.0, 10 mM MgCl2, 1 M NaCl, 0.1% Triton X-100) is added to plasma (12 μL) and reacted at 37° C. for 6 hr. The reaction mixture (10 μL) after reaction for 6 hr and 45 μL of reagent R^1 solution (100 mM Tris-HCl pH 8.0, 0.5 mM TOOS, 10 U/mL peroxidase, 0.01% Triton X-100) were added and blended and absorbance at 550-700 nm was measured and used as a prevalue. As the standard, choline chloride was used. 1 mM choline chloride was diluted with 2× assay buffer up to 7 steps in 2-fold serial dilution, R^1 solution was treated similarly and the absorbance was measured. Furthermore, 15 μL of reagent R^2 solution (100 mM Tris-HCl pH 8.0, 1 mM 4-aminoantipyrine, 10 U/mL choline oxidase, 0.01% Triton X-100) was added, and the mixture was reacted at room temperature for 10 min, and absorbance at 550-700 nm was measured. The choline concentration per reaction time was calculated from the difference between the absorbance after R^2 solution addition and prevalue measured before R^2 addition and used as ATX activity value. inhibitory activity (%)=100×{1−[choline concentration (μM) of test substance administration group/choline concentration (μM) of solvent control group]} <calculating formula>

human recombinant ATX = human recombinant ATX (Homo sapiens, UniProt Q13822); assay: Enzyme inhibition test (choline release from LPC, Amplex UltraRed fluorescence); format: biochemical; settings: 200 μM LPC substrate, 1 hr at room temperature, read-out: Experimental Example 1 human ATX IC50
Procedure: [Enzyme Inhibition Test Method]
A mixture (10 μL) of substrate and a set of choline quantification reagents (200 μM LPC (1-Oleoyl-sn-glycero-3-phosphocholine Sigma #L1881), 25 μM Amplex UltraRed reagent (Invitrogen), 0.1 U/mL Peroxidase (TOYOBO), 1 U/mL Choline oxidase (TOYOBO)), prepared with assay buffer (50 mM Tris (pH 8.0), 140 mM NaCl, 5 mM KCl, 1 mM CaCl2, 1 mM MgCl2, 0.1% BSA (Albumin from bovine serum, SIGMA), 0.0025% Triton X-100), enzyme (0.4 ng/μL human recombinant ATX) (10 μL), compound-containing solution (100 nL) were dispensed to a 384-well plate, incubated at room temperature for 1 hr and the fluorescence (Ex. 525 nm/Em. 598 nm) was measured. As the standard, choline chloride was used. With a blank free of enzyme was taken as inhibitory rate 100%, and a control free of inhibitor as inhibitory rate 0%, the inhibitory rate was calculated, and IC50 value was calculated from the inhibitory activity percentage at each concentration.

| Compound | Experimental Example 2 Rat single administration test (inhibitory activity (%) 8 hr after 1 mg/kg oral administration) (ATX activity in plasma) | IC50 (human recombinant ATX) |
| --- | --- | --- |
| COc1ccc(-c2cncc(OCc3ccc(OC(F)(F)F)cc3)c2)cc1[C@@H]1C[C@H]1C(=O)O (relative stereo) [Example 2, trans-2-[2-methoxy-5-(5-{[4-(trifluoromethoxy)benzyl]oxy}pyridin-3-yl)phenyl]cyclopropanecarboxylic Acid] | 72% | 9 nM |
| O=C(O)c1cccc(C2CN(c3cncc(OC[C@H]4CC[C@H](C(F)(F)F)CC4)c3)CCO2)c1 (relative stereo) [Example 13, 3-[4-(5-{[trans-4-(trifluoromethyl)cyclohexyl]methoxy}pyridin-3-yl)morpholin-2-yl]benzoic Acid] | 71% | 3 nM |
| COc1ccc(-c2cnnc(OC[C@H]3CC[C@H](C(F)(F)F)CC3)c2)cc1[C@H]1C[C@@H]1C(=O)O [Example 1-1, (1S,2S)-2-[2-methoxy-5-(6-{[trans-4-(trifluoromethyl)cyclohexyl]methoxy}pyridazin-4-yl)phenyl]cyclopropanecarboxylic Acid] | 94% | 1 nM |
| COc1ccc(-c2cnnc(OC[C@H]3CC[C@H](C(F)(F)F)CC3)c2)cc1[C@@H]1C[C@H]1C(=O)O [Example 1-2, (1R,2R)-2-[2-methoxy-5-(6-{[trans-4-(trifluoromethyl)cyclohexyl]methoxy}pyridazin-4-yl)phenyl]cyclopropanecarboxylic Acid] | 93% | 5 nM |
| COc1ccc(-c2cncc(CCc3ccc(OC(F)(F)F)cc3)c2)nc1[C@H]1C[C@@H]1C(=O)O [Example 6, (1S,2S)-2-(5-methoxy-5′-{2-[4-(trifluoromethoxy)phenyl]ethyl}-2,3′-bipyridin-6-yl)cyclopropanecarboxylic Acid] | 71% | 4 nM |
| O=C(O)[C@H]1C[C@@H]1c1cccc(-c2cncc(OC[C@H]3CC[C@H](C(F)(F)F)CC3)c2)n1 [Example 8-1, (1S,2S)-2-(5′-{[trans-4-(trifluoromethyl)cyclohexyl]methoxy}-2,3′-bipyridin-6-yl)cyclopropanecarboxylic Acid] | 92% | 2 nM |
| O=C(O)[C@@H]1C[C@H]1c1cccc(-c2cncc(OC[C@H]3CC[C@H](C(F)(F)F)CC3)c2)n1 [Example 8-2, (1R,2R)-2-(5′-{[trans-4-(trifluoromethyl)cyclohexyl]methoxy}-2,3′-bipyridin-6-yl)cyclopropanecarboxylic Acid] | 47% | 20 nM |
| Cc1cc(C2CN(c3cncc(OC[C@H]4CC[C@H](C(F)(F)F)CC4)c3)CCO2)ncc1C(=O)O (stereo partly drawn) [Example 56] |  | 7 nM |
| Cc1nc(C2CN(c3cncc(OC[C@H]4CC[C@H](C(F)(F)F)CC4)c3)CCO2)ccc1C(=O)O (stereo partly drawn) [Example 57] |  | 7 nM |
| Cc1ccc(C2CN(c3cncc(OC[C@H]4CC[C@H](C(F)(F)F)CC4)c3)CCO2)nc1C(=O)O (stereo partly drawn) [Example 58] |  | 4 nM |
| Cc1ncc(C2CN(c3cncc(OC[C@H]4CC[C@H](C(F)(F)F)CC4)c3)CCO2)cc1C(=O)O (stereo partly drawn) [Example 59] |  | 5 nM |
| Cc1cnc(C2CN(c3cncc(OC[C@H]4CC[C@H](C(F)(F)F)CC4)c3)CCO2)cc1C(=O)O (stereo partly drawn) [Example 60] |  | 5 nM |
| Cc1cnc(C2CN(c3cncc(OC[C@H]4CC[C@H](C(F)(F)F)CC4)c3)CCO2)cc1C(=O)O (stereo partly drawn) [Example 61] |  | 15 nM |
| O=C(O)c1cc(C2CN(c3cncc(OC[C@H]4CC[C@H](C(F)(F)F)CC4)c3)CCO2)ncc1C(F)(F)F (stereo partly drawn) [Example 62] |  | 1 nM |
| O=C(O)c1ccc(C2CN(c3cncc(OCc4ccc(OC(F)(F)F)cc4)c3)CCO2)nc1 (stereo not drawn) [Example 63] |  | 7 nM |
| O=C(O)c1cncc(C2CN(c3cncc(OCc4ccc(OC(F)(F)F)cc4)c3)CCO2)c1 (stereo not drawn) [Example 64] |  | 1 nM |
| O=C(O)c1ccnc(C2CN(c3cncc(OCc4ccc(OC(F)(F)F)cc4)c3)CCO2)c1 (stereo not drawn) [Example 65] |  | 16 nM |
| Cc1cc(C2CN(c3cncc(OCc4ccc(OC(F)(F)F)cc4)c3)CCO2)cnc1C(=O)O (stereo not drawn) [Example 66] |  | 5 nM |
| O=C(O)c1cccc(C2CCN(c3cncc(OCc4ccc(OC(F)(F)F)cc4)c3)C2)c1 (stereo not drawn) [Example 67] |  | 13 nM |
| O=C(O)c1ccc(C2CCCN2c2cncc(OCc3ccc(OC(F)(F)F)cc3)c2)cc1 (stereo not drawn) [Example 68] |  | 14 nM |
| O=C(O)CC[C@@H]1CN(c2cncc(OCc3ccc(OC(F)(F)F)cc3)c2)CCO1 [Example 69] |  | 152 nM |
| O=C(O)CC[C@H]1CN(c2cncc(OCC3CCN(CC(F)(F)F)CC3)c2)CCO1 [Example 70] |  | 135 nM |
| O=C(O)CC[C@H]1CN(c2cncc(OCC3CCCCC3)c2)CCO1 [Example 71] |  | 104 nM |
| O=C(O)CC[C@H]1CN(c2cncc(OCC3CCC4(CCC4)CC3)c2)CCO1 [Example 72] |  | 8 nM |

| Compound | Experimental Example 2 Rat single administration test (inhibitory activity (%) 8 hr after 1 mg/kg oral administration) (ATX activity in plasma) | IC50 (human recombinant ATX) |
| --- | --- | --- |
| O=C(O)CC[C@H]1CN(c2cncc(OCC3CCC4(CC3)CC4)c2)CCO1 [Example 73] |  | 9 nM |
| CC1(C)CCC(COc2cncc(N3CCO[C@@H](CCC(=O)O)C3)c2)CC1 [Example 74] |  | 10 nM |
| O=C(O)CC[C@H]1CN(c2cncc(OCC3CCC(F)(F)CC3)c2)CCO1 [Example 75] |  | 68 nM |
| O=C(O)CC[C@H]1CN(c2cncc(OC[C@H]3CC[C@@H](C(F)(F)F)CC3)c2)CCO1 [Example 76] |  | 78 nM |
| O=C(O)CC[C@H]1CN(c2cncc(OCc3ccc(F)cc3)c2)CCO1 [Example 77] |  | 381 nM |
| O=C(O)CC[C@H]1CN(c2cncc(OCc3ccc(Cl)cc3)c2)CCO1 [Example 78] |  | 91 nM |
| O=C(O)CC[C@H]1CN(c2cncc(OCc3cccc(Cl)c3)c2)CCO1 [Example 79] |  | 189 nM |
| O=C(O)CC[C@H]1CN(c2cncc(OCc3ccccc3Cl)c2)CCO1 [Example 80] |  | 493 nM |
| O=C(O)CC[C@H]1CN(c2cncc(OCc3ccc(SC(F)(F)F)cc3)c2)CCO1 [Example 81] |  | 12 nM |
| O=C(O)CC[C@H]1CN(c2cncc(OCc3ccc(OC(F)(F)F)c(Cl)c3)c2)CCO1 [Example 85] |  | 29 nM |
| O=C(O)CC[C@H]1CN(c2cncc(COc3ccc(C(F)(F)F)cc3)c2)CCO1 [Example 86] |  | 129 nM |
| C[C@H]1CN(c2cncc(OCc3ccc(OC(F)(F)F)cc3)c2)C[C@H](CCC(=O)O)O1 [Example 88] |  | 133 nM |
| CC1(C(=O)O)CC1[C@H]1CN(c2cnnc(OC[C@H]3CC[C@H](C(F)(F)F)CC3)c2)CCO1 (stereo partly drawn) [Example 89] |  | 9 nM |
| O=C(O)C1CN(c2cncc(OCc3ccc(OC(F)(F)F)cc3)c2)CCO1 (stereo not drawn) [Example 90] |  | 419 nM |
| O=C(O)CCC1CCCN(c2cncc(OCc3ccc(OC(F)(F)F)cc3)c2)C1 (stereo not drawn) [Example 91] |  | 24 nM |
| O=C(O)CCCC1CN(c2cncc(OCc3ccc(OC(F)(F)F)cc3)c2)CCO1 (stereo not drawn) [Example 94] |  | 32 nM |
| O=C(O)CCCC1COCCN1c1cncc(OCc2ccc(OC(F)(F)F)cc2)c1 (stereo not drawn) [Example 95] |  | 36 nM |
| O=C(O)COC[C@@H]1CCCN1c1cncc(OCc2ccc(OC(F)(F)F)cc2)c1 [Example 96] |  | 19 nM |
| O=C(O)CC1CCN(c2cncc(OCc3ccc(OC(F)(F)F)cc3)c2)C1 (stereo not drawn) [Example 97] |  | 378 nM |
| O=C(O)CCC1CCN(c2cncc(OCc3ccc(OC(F)(F)F)cc3)c2)C1 (stereo not drawn) [Example 98] |  | 120 nM |
| O=C(O)CCCC1CCN(c2cncc(OCc3ccc(OC(F)(F)F)cc3)c2)C1 (stereo not drawn) [Example 99] |  | 50 nM |
| O=C(O)CCC1CCCN1c1cncc(OCc2ccc(OC(F)(F)F)cc2)c1 (stereo not drawn) [Example 100] |  | 204 nM |
| O=C(O)/C=C/C1CCCN1c1cncc(OCc2ccc(OC(F)(F)F)cc2)c1 (stereo not drawn) [Example 101] |  | 113 nM |
